Results from ChEMBL document CHEMBL1909046, “DrugMatrix in vitro pharmacology data”.
pIC50, pKi: −log10 of the molar value.

Key:
[1] = molecular target: T1, Cytochrome P450 1A2 (Homo sapiens, UniProt P05177); conditions: bti-tn-5b1-4; also: in other assays of this panel Not Active means under 50% inhibition at 10 µM
T1 sequence (P05177 whole entry): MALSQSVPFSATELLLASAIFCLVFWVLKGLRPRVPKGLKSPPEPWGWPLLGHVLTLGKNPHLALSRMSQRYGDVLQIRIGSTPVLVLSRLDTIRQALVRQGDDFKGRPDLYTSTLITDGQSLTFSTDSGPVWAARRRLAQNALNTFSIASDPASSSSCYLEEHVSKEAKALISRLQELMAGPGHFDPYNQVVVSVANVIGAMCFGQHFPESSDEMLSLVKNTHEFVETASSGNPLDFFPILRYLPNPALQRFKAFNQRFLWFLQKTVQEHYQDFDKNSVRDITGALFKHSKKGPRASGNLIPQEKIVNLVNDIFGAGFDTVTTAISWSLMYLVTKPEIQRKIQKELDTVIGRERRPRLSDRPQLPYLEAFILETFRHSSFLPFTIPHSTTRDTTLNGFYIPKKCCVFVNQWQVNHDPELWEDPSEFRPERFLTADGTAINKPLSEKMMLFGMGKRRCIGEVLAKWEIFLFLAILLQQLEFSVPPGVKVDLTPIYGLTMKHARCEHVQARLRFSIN

[2] = molecular target: T2, C-X-C chemokine receptor type 1 (Homo sapiens, UniProt P25024); also: in other assays of this panel Not Active means under 50% inhibition at 10 µM
T2 sequence (P25024 whole entry): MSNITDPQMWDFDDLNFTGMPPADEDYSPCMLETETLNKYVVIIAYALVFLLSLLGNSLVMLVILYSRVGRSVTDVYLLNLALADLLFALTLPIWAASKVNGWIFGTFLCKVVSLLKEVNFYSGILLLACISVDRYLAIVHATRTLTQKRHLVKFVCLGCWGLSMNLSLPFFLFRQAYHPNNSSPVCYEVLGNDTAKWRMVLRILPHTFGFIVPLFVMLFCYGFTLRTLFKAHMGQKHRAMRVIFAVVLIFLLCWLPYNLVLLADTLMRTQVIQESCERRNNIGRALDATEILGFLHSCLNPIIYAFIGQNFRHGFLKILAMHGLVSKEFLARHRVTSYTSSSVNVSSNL

[3] = molecular target: Melanocortin receptor 4 (Homo sapiens, UniProt P32245); type: cell membranes, Membrane; conditions: hek293; also: in other assays of this panel Not Active means under 50% inhibition at 10 µM
Chain of Melanocortin receptor 4 (P32245 whole entry): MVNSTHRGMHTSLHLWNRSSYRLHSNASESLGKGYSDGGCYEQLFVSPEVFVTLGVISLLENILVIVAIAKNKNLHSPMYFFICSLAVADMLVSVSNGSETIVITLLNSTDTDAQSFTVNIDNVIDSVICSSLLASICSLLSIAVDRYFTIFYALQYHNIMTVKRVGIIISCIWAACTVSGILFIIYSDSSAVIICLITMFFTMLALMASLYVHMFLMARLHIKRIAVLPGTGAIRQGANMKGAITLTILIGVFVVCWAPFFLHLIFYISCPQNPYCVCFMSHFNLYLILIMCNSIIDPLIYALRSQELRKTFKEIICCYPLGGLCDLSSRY

[4] = molecular target: Aldo-keto reductase family 1 member B1 (Rattus norvegicus, UniProt P07943); assay: biochemical; type: tissue-based, Lens of camera-type eye;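 also: inhibition of aldose reductase enzyme activity, measured with DL-glyceraldehyde as the substrate; in other assays of this panel Not Active means under 50% inhibition at 10 µM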
[5] = molecular target: T3, Alpha-2C adrenergic receptor (Homo sapiens, UniProt P18825); assay: DRUGMATRIX: Adrenergic Alpha-2C radioligand binding (ligand: [3H] MK-912); type: cell membranes, Sf9, Membrane; conditions: for IC50: sf9
T3 sequence (P18825 whole entry): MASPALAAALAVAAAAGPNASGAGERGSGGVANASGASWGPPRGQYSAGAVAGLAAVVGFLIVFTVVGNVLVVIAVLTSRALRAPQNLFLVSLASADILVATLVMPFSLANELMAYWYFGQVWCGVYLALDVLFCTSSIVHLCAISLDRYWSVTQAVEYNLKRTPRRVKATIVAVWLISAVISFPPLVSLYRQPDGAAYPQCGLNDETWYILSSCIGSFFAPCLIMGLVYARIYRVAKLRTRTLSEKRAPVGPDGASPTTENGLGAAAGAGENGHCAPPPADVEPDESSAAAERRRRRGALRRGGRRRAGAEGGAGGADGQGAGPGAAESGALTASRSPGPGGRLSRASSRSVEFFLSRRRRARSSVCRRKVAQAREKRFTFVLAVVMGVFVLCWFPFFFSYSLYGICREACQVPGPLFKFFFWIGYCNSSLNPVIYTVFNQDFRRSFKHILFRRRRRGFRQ

[6] = molecular target: Beta-1 adrenergic receptor (Homo sapiens, UniProt P08588); assay: DRUGMATRIX: Adrenergic beta1 radioligand binding (ligand: [125I] Cyanopindolol); type: cell membranes, CHO-K1, Membrane; conditions: cho-k1; Not Active = under 50% inhibition at 10 µM
Chain of Beta-1 adrenergic receptor (P08588 whole entry): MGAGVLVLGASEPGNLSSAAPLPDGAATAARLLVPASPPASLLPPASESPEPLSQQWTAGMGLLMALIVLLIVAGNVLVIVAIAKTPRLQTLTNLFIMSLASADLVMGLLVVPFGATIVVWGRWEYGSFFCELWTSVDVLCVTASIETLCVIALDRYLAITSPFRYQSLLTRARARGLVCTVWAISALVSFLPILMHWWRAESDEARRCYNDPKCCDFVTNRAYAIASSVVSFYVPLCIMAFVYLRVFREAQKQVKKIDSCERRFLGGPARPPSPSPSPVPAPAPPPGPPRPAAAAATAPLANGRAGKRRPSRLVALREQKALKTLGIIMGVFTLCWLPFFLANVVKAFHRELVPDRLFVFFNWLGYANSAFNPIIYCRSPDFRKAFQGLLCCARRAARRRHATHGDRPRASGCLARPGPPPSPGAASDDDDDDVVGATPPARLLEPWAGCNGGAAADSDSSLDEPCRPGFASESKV

[7] = molecular target: T4, Cytochrome P450 2A6 (Homo sapiens, UniProt P11509); conditions: bti-tn-5b1-4; also: in other assays of this panel Not Active means under 50% inhibition at 10 µM
T4 sequence (P11509 whole entry): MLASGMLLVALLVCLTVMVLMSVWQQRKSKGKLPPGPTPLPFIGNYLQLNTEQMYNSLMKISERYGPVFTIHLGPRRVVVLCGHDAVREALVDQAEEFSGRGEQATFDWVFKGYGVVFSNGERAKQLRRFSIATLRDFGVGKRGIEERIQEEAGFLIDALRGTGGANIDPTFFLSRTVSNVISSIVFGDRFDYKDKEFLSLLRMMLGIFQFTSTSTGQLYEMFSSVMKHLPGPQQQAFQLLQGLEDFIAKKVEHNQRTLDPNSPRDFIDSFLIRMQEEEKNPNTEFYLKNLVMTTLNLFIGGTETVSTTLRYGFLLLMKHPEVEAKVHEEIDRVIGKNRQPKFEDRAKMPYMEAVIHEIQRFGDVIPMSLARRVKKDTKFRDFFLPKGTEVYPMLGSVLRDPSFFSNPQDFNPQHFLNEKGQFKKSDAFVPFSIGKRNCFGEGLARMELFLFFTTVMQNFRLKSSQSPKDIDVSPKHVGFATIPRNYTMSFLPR

[8] = molecular target: T5, Endothelin-1 receptor (Homo sapiens, UniProt P25101); type: cell membranes, Membrane; conditions: cho-k1; also: in other assays of this panel Not Active means under 50% inhibition at 10 µM
T5 sequence (P25101 whole entry): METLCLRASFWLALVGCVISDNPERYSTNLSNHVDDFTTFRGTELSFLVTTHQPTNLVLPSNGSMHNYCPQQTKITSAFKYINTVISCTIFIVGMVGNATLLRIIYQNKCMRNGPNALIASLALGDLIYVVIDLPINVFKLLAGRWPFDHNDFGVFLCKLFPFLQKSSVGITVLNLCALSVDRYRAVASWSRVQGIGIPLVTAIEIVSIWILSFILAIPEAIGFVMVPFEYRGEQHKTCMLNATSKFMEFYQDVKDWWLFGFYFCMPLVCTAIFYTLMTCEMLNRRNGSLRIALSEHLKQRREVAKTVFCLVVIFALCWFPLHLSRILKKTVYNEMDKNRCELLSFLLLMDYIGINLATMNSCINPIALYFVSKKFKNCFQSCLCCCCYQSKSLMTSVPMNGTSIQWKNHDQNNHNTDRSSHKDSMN

| Compound | IC50 [1] | Ki [1] | IC50 [2] | IC50 [3] | IC50 [4] | pIC50 ([5]; read-out: IC50) | pKi ([5]; read-out: Ki) | IC50 [6] | IC50 [7] | Ki [7] | IC50 [8] | IC50 [5] |
| --- | --- | --- | --- | --- | --- | --- | --- | --- | --- | --- | --- | --- |
| C[C@]12CC[C@@H]3c4ccc(OC(=O)c5ccccc5)cc4CC[C@H]3[C@@H]1CC[C@@H]2O [ESTRADIOL BENZOATE] | Not Active | Not Active | Not Active | Not Active | Not Active | 4.61 | 5.45 | Not Active | Not Active | Not Active | Not Active |  |
| C[C@]12CC[C@@H]3c4ccc(O)cc4CC[C@H]3[C@@H]1CC[C@@H]2O [ESTRADIOL] | Not Active | Not Active | Not Active | Not Active | Not Active |  |  | Not Active | Not Active | Not Active | Not Active | Not Active |
| CC[C@@H](CO)NCCN[C@@H](CC)CO [ETHAMBUTOL] | Not Active | Not Active | Not Active | Not Active | Not Active |  |  | Not Active | Not Active | Not Active | Not Active | Not Active |
| CC1(C)O[C@@H]2C[C@H]3[C@@H]4C[C@H](F)C5=CC(=O)C=C[C@]5(C)[C@H]4[C@@H](O)C[C@]3(C)[C@]2(C(=O)CO)O1 [FLUNISOLIDE] | Not Active | Not Active | Not Active | Not Active | Not Active |  |  | Not Active | Not Active | Not Active | Not Active | Not Active |
| CC1(C)O[C@@H]2C[C@H]3[C@@H]4C[C@H](F)C5=CC(=O)C=C[C@]5(C)[C@@]4(F)[C@@H](O)C[C@]3(C)[C@]2(C(=O)CO)O1 [FLUOCINOLONE ACETONIDE] | Not Active | Not Active | Not Active | Not Active | Not Active |  |  | Not Active | Not Active | Not Active | Not Active | Not Active |
| CC1(C)O[C@@H]2C[C@H]3[C@@H]4C[C@H](F)C5=CC(=O)CC[C@]5(C)[C@H]4[C@@H](O)C[C@]3(C)[C@]2(C(=O)CO)O1 [FLURANDRENOLIDE] | Not Active | Not Active | Not Active | Not Active | Not Active |  |  | Not Active | Not Active | Not Active | Not Active | Not Active |
| Cc1ccc(S(=O)(=O)NC(=O)NN2CC3CCCC3C2)cc1 (stereo unspecified) [GLICLAZIDE] | Not Active | Not Active | Not Active | Not Active | Not Active |  |  | Not Active | Not Active | Not Active | Not Active | Not Active |
| CC(C)Cc1ccc(C(C)C(=O)O)cc1 (stereo unspecified) [IBUPROFEN] | Not Active | Not Active | Not Active | Not Active | Not Active |  |  | Not Active | Not Active | Not Active | Not Active | Not Active |
